{"source": "patent US20220249978A1", "about": "“NOVEL SOLVENT FOR EXTRACTING, SOLUBILISING AND/OR FORMULATING VOLATILE AND NON-VOLATILE COMPOUNDS OF INTEREST IN ANIMAL NUTRITION AND HEALTH, PREPARATION METHOD AND USES THEREOF” (ID4TECH, priority 2019, published 2022)", "origin": "cited, not measured here", "key": {"[1]": {"system": "Gram+ but also Gram− bacteria such as Staphylococcus, Streptococcus, Gardnerella, Haemophilus but also Listeria monocytogenes"}, "[2]": {"system": "pro-inflammatory cytokines (IL-8 and TNF-α)"}, "Candida strains": {"system": "Candida strains", "conditions": "in vitro and in vivo"}, "Bacillus anthracis": {"system": "Bacillus anthracis", "conditions": "blocks its growth without killing the cells"}}}
{"smiles": "CCCCCCCCCCCC(=O)OCC(O)CO", "note": "(stereo not shown) [glycerol monolaurate]", "values": [{"measurement": "growth of Gram+ and Gram− bacteria", "setting": "[1]", "value": "acts against the growth"}, {"measurement": "quantity of pro-inflammatory cytokines (IL-8 and TNF-α)", "setting": "[2]", "value": "significant decrease"}, {"measurement": "growth of Candida strains", "setting": "Candida strains", "value": "inhibits the growth"}, {"measurement": "action against Bacillus anthracis", "setting": "Bacillus anthracis", "value": "bacteriostatic agent"}]}
